Results on six compounds are retold here after paper PMC11009388, “Insights into the molecular mechanism of yellow cuticle coloration by a chitin-binding carotenoprotein in gregarious locusts” (Communications Biology, 2024).

Several values for one entry are separate records, joined by “and”; a condition that tells them apart may be missing. Equal values may be shown once.

Assay [1] concerns the target T1, BBP (β-carotene-binding protein), recombinant (Schistocerca gregaria, UniProt A0A6N3ISN1).
T1 construct: gene YPT; mature form residues 23-273, signal peptide removed; N-terminal His6 tag cleaved by 3C leaving GSHM; E. coli C41(DE3) making carotenoids
T1 sequence (A0A6N3ISN1 23-273): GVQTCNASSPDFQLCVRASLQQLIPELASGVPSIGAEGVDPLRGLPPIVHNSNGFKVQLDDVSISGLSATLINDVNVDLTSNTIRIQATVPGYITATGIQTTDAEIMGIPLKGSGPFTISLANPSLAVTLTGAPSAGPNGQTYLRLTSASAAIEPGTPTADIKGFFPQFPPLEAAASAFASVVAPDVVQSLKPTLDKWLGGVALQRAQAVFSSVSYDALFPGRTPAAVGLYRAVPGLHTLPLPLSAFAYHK
Kind of assay: HPLC of carotenoids bound to purified protein. Conditions: late induction in ECH/CAN-producing E. coli; competing with β-carotene in membranes.

In another assay the target is T2, BmCBP (Bombyx mori, UniProt Q8MYA9).
T2 construct: residues 68-297 (START domain), His-tag cleaved, preparation from previous work
T2 sequence (Q8MYA9 68-297): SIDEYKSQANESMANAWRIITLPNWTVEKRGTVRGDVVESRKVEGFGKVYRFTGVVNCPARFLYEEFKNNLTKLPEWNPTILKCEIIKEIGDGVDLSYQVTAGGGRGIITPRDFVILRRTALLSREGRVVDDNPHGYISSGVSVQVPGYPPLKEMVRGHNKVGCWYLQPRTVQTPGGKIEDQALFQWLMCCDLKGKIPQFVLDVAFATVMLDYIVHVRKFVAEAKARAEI
Kind of assay: induced UV/Vis circular dichroism, absorbance spectrum, SECmelt. Format: binding. Conditions: 20 mM phosphate pH 7.2 (CD); sample has excess apoform. For orientation: CD spectra are sensitive to the conformation of chiral molecules.

Assay [2] addresses T1, BBP (β-carotene-binding protein), recombinant. Kind of assay: HPLC of bound carotenoid, absorbance, CD and Raman spectra, SEC of holoprotein. Conditions: reconstituted in β-carotene-producing E. coli; 20 mM Tris-HCl pH 7.5, 150 mM NaCl.
The target of assay [3] is native BBP extracted from the yellow locust cuticle (Schistocerca gregaria (endogenous in locust cuticle)). Kind of assay: SEC; clarified soluble extract of yellow locust cuticle on Superdex 200 Increase 5/150, 0.45 mL/min; 20 mM Tris-HCl pH 7.5, 150 mM NaCl, 3 mM βME, 0.5 mM PMSF; apparent Mw from column calibration. On the technique in general: In gel filtration, larger molecules generally elute earlier.

The target of assay [4] is recombinant β-carotene-binding protein from Schistocerca gregaria in complex with β-carotene, BBP(βCar) (Schistocerca gregaria). Kind of assay: cross-linking; glutaraldehyde 0.23%, 15 min at 30 °C, 20 mM HEPES pH 7.5, 150 mM NaCl; analysed by SDS-PAGE.
For assay [5] the target is unchanged. Kind of assay: SEC-MALS; Superdex 200 Increase 10/300, 20 mM Tris pH 7.5, 150 mM NaCl, 3 mM βME, 0.8 mL/min; self-association of BBP(βCar).
Assay [6] has the same target. Kind of assay: SEC; spectrochromatography on Superdex 200 Increase 5/150, 0.45 mL/min; 20 mM Tris-HCl pH 7.5, 150 mM NaCl, 3 mM βME, also with 2 M urea or 0.05% DOC, or 10 mM MES pH 6.0, 150 mM NaCl; apparent Mw from column calibration.

For `CC1=C(/C=C/C(C)=C/C=C/C(C)=C/C=C/C=C(C)/C=C/C=C(C)/C=C/C2=C(C)C(=O)CCC2(C)C)C(C)(C)CCC1=O` [CAN, canthaxanthin], in assay [1], the “HPLC of carotenoids bound to purified protein” value was “also exhibits capacity to bind ECH and, less efficiently, CAN”. Still for that read-out and setting: next, `CC1=C(/C=C/C(C)=C/C=C/C(C)=C/C=C/C=C(C)/C=C/C=C(C)/C=C/C2=C(C)C(=O)CCC2(C)C)C(C)(C)CCC1` [ECH, echinenone]: “BBP avidly binds β-carotene but also exhibits capacity to bind ECH”. For `CC1=C(/C=C/C(C)=C/C=C/C(C)=C/C=C/C=C(C)/C=C/C=C(C)/C=C/C2=C(C)C[C@@H](O)CC2(C)C)C(C)(C)C[C@H](O)C1` [ZEA, zeaxanthin], the “induced UV/Vis circular dichroism, absorbance spectrum, SECmelt” value at BmCBP is on record as “UV/Vis circular dichroism spectrum was distinctly different from that of the BmCBP complex with ZEA”. Turning to `CC1=C(/C=C/C(C)=C/C=C/C(C)=C/C=C/C=C(C)/C=C/C=C(C)/C=C/C2=C(C)CCCC2(C)C)C(C)(C)CCC1` [βCar, β-carotene], the “HPLC of bound carotenoid, absorbance, CD and Raman spectra, SEC of holoprotein” value in assay [2] was “recombinant BBP, like native BBP from locusts, indeed contains almost exclusively β-carotene”. A word on the stoichiometry N: it is a count of units in the complex or per binding partner. For “native BBP extracted from the yellow locust cuticle (natural protein)”, the stoichiometry N in assay [3] came to 2. In the case of “recombinant β-carotene-binding protein from Schistocerca gregaria in complex with β-carotene, BBP(βCar) (from UniProt A0A6N3ISN1 23-273) (natural protein)”, the stoichiometry N was 4 and 2 in assay [4]; 2 in assay [5]; 2 and 4 in assay [6].
